Columns and labels:
Format in all cases: in vivo
[1] = system: giant foxtail (Setaria faberi); assay: Test A pre-/postemergence plant response
Outline: (§1)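 Scores reflect visual plant injury relative to untreated controls on a 0–100 scale, recorded approximately 10 days after simultaneous preemergence soil spraying and postemergence spraying of one- to two-leaf seedlings grown in loam–sand.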

[2] = system: wheat (Triticum aestivum); assay: Test A pre-/postemergence plant response
Outline: as §1

corn (Zea mays) = assay: Test A pre-/postemergence plant response
Outline: as §1

[3] = system: morningglory (Ipomoea coccinea); assay: Test A pre-/postemergence plant response
Outline: as §1

[4] = system: pigweed (Amaranthus retroflexus); assay: Test A pre-/postemergence plant response
Outline: as §1

[5] = system: velvetleaf (Abutilon theophrasti); assay: Test A pre-/postemergence plant response
Outline: as §1

[6] = system: barnyardgrass (Echinochloa crus-galli); assay: Test A pre-/postemergence plant response
Outline: as §1

[7] = system: large crabgrass (Digitaria sanguinalis); assay: Test A pre-/postemergence plant response
Outline: as §1

[8] = system: canarygrass (Phalaris minor); assay: Test B postemergence plant response; settings: for Plant response rating, Canarygrass: Postemergence
Outline: (§2)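 Following treatment of plants 2 to 18 cm high after emergence, pots were held under glass for 13 to 15 days; efficacy was then graded visually, 100 denoting complete control and a dash no test result.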

[9] = system: chickweed (Stellaria media); assay: Test B postemergence plant response; settings: for Plant response rating, Chickweed: Postemergence
Outline: as §2

[10] = system: windgrass (Apera spica-venti); assay: Test B postemergence plant response; settings: for Plant response rating, Windgrass: Postemergence; for Windgrass plant response rating: postemergence, 0-100 scale
Outline: as §2

[11] = system: winter barley (Hordeum vulgare); assay: Test B postemergence plant response; settings: for Plant response rating, Barley: Postemergence
Outline: as §2

[12] = system: surinam grass (Brachiaria decumbens); assay: Test B pre-/postemergence plant response
From the text: Seeds of plant species selected from blackgrass (Alopecurus myosuroides), downy bromegrass (Bromus tectorum), green foxtail (Setaria viridis), Italian ryegrass (Lolium multiflorum), wheat (Triticum aestivum), wild oat (Avena fatua), catchweed bedstraw (Galium aparine), bermudagrass (Cynodon dactylon), surinam grass (Brachiaria decumbens), cocklebur (Xanthium strumarium), corn (Zea mays), large crabgrass (Digitaria sanguinalis), woolly cupgrass (Eriochloa villosa), giant foxtail (Setaria faberii), goosegrass (Eleusine indica), johnsongrass (Sorghum halepense), kochia (Kochia scoparia), lambsquarters (Chenopodium album), morningglory (Ipomoea coccinea), eastern black (E.B.) nightshade (Solanum ptycanthum), yellow nutsedge (Cyperus esculentus), pigweed (Amaranthus retroflexus), common ragweed (Ambrosia elation), Russian thistle (Salsola iberica), soybean (Glycine max), common (oilseed) sunflower (Helianthus annuus), and velvetleaf (Abutilon theophrasti) were planted and treated preemergence with test chemicals formulated in a non-phytotoxic solvent mixture which included a surfactant.
At the same time, plants selected from these crop and weed species and also winter barley (Hordeum vulgare), canarygrass (Phalaris minor), chickweed (Stellaria media) and windgrass (Apera spica-venti) were treated with postemergence applications of some of the test chemicals formulated in the same manner. Plants ranged in height from 2 to 18 cm (1- to 4-leaf stage) for postemergence treatments.
Plant species in the flooded paddy test consisted of rice (Oryza sativa), umbrella sedge (Cyperus difformis), ducksalad (Heteranthera limosa) and barnyardgrass (Echinochloa crus-galli) grown to the 2-leaf stage for testing. At time of treatment, test pots were flooded to 3 cm above the soil surface, treated by application of test compounds directly to the paddy water, and then maintained at that water depth for the duration of the test. Treated plants and controls were maintained in a greenhouse for 13 to 15 days, after which time all species were compared to controls and visually evaluated. Plant response ratings, summarized in Table B, are based on a scale of 0 to 100 where 0 is no effect and 100 is complete control. A dash (-) response means no test result.

[13] = Postemergence, 125 g ai/ha, 0 to 100 scale, 0 no effect, 100 complete control
[14] = Postemergence, 500 g ai/ha, 0 to 100 scale, 0 no effect, 100 complete control
[15] = Preemergence, 125 g ai/ha, 0 to 100 scale (0 no effect, 100 complete control)
[16] = Preemergence, 500 g ai/ha, 0 to 100 scale (0 no effect, 100 complete control)
[17] = 31 g ai/ha, scale 0 to 100, 0 no effect, 100 complete control
[18] = Postemergence, 31 g ai/ha, 0 to 100 scale (0 no effect, 100 complete control)
[19] = Preemergence, 31 g ai/ha, 0 to 100 scale, 0 is no effect, 100 is complete control
[20] = 8 g ai/ha, postemergence, 0-100 scale
[21] = 62 g ai/ha, scale 0 to 100, 0 no effect, 100 complete control

4-[3-(4-chlorophenyl)-5-methyl-1H-pyrazol-3-yl]-5-hydroxy-2-methyl-3(2H)-pyridazinone [Compound 3]
60: Plant response rating, Morningglory [3, 14]
90: Plant response rating, Wheat [2, 14] | Plant response rating, Wheat [2, 16] | Plant response rating, Corn (corn (Zea mays); [13]) | Plant response rating, Corn (corn (Zea mays); [16]) | Plant response rating, Barnyardgrass [6, 15] | Plant response rating, Canarygrass ([8]; 250 g ai/ha, scale 0 to 100)
100: Plant response rating, Foxtail, Giant [1, 13] | Plant response rating, Foxtail, Giant [1, 14] | Plant response rating, Foxtail, Giant [1, 15] | Plant response rating, Foxtail, Giant [1, 16] | Plant response rating, Corn (corn (Zea mays); [14]) | Plant response rating, Barnyardgrass [6, 13] | Plant response rating, Barnyardgrass [6, 14] | Plant response rating, Barnyardgrass [6, 16] | Plant response rating, Crabgrass, Large [7, 13] | Plant response rating, Crabgrass, Large [7, 14] | Plant response rating, Crabgrass, Large [7, 15] | Plant response rating, Crabgrass, Large [7, 16] | Plant response rating, Windgrass ([10]; 62 g ai/ha, scale 0 to 100) | Plant response rating, Windgrass ([10]; 125 g ai/ha, scale 0 to 100) | Plant response rating, Windgrass ([10]; 250 g ai/ha, scale 0 to 100) | Plant response rating, Surinam Grass ([12]; Postemergence, 31 g ai/ha, scale 0 to 100, 0 no effect, 100 complete control) | Plant response rating, Surinam Grass ([12]; Postemergence, 62 g ai/ha, scale 0 to 100) | Plant response rating, Surinam Grass ([12]; Postemergence, 125 g ai/ha, scale 0 to 100) | Plant response rating, Surinam Grass ([12]; Postemergence, 250 g ai/ha, scale 0 to 100) | Plant response rating, Surinam Grass ([12]; Preemergence, 31 g ai/ha, 0 to 100 scale, 0 no effect, 100 complete control) | Plant response rating, Surinam Grass ([12]; Preemergence, 62 g ai/ha, scale 0 to 100) | Plant response rating, Surinam Grass ([12]; Preemergence, 125 g ai/ha, scale 0 to 100) | Plant response rating, Surinam Grass ([12]; Preemergence, 250 g ai/ha, scale 0 to 100)
10: Plant response rating, Pigweed [4, 14] | Plant response rating, Velvetleaf [5, 16]
80: Plant response rating, Corn (corn (Zea mays); [15]) | Plant response rating, Windgrass [10, 17]
70: Plant response rating, Wheat [2, 13] | Plant response rating, Wheat [2, 15]
50: Plant response rating, Morningglory [3, 13] | Plant response rating, Velvetleaf [5, 14]
85: Plant response rating, Canarygrass [8, 17] | Plant response rating, Canarygrass ([8]; 62 g ai/ha, scale 0 to 100) | Plant response rating, Canarygrass ([8]; 125 g ai/ha, scale 0 to 100)
0: Plant response rating, Morningglory [3, 15] | Plant response rating, Morningglory [3, 16] | Plant response rating, Pigweed [4, 13] | Plant response rating, Pigweed [4, 15] | Plant response rating, Pigweed [4, 16] | Plant response rating, Velvetleaf [5, 13] | Plant response rating, Velvetleaf [5, 15] | Plant response rating, Chickweed [9, 17] | Plant response rating, Chickweed ([9]; 62 g ai/ha, scale 0 to 100) | Plant response rating, Chickweed ([9]; 125 g ai/ha, scale 0 to 100) | Plant response rating, Chickweed ([9]; 250 g ai/ha, scale 0 to 100) | Plant response rating, Barley [11, 17] | Plant response rating, Barley ([11]; 62 g ai/ha, scale 0 to 100) | Plant response rating, Barley ([11]; 125 g ai/ha, scale 0 to 100) | Plant response rating, Barley ([11]; 250 g ai/ha, scale 0 to 100)

Cc1nn(C)c(=O)c(-n2nc(-c3ccc(Br)cc3)cc2C)c1O [Compound 81]
95: Plant response rating, Windgrass [10, 21]
15: Plant response rating, Barley ([11]; 16 g ai/ha, scale 0 to 100, 0 no effect, 100 complete control)
0: Plant response rating, Wheat [2, 18] | Plant response rating, Pigweed [4, 18] | Plant response rating, Pigweed [4, 13] | Plant response rating, Pigweed [4, 19] | Plant response rating, Pigweed [4, 15] | Chickweed plant response rating [9, 20] | Plant response rating, Chickweed ([9]; 16 g ai/ha, scale 0 to 100) | Plant response rating, Chickweed ([9]; 31 g ai/ha, scale 0 to 100) | Plant response rating, Chickweed [9, 21]
65: Canarygrass plant response rating [8, 20]
80: Plant response rating, Foxtail, Giant [1, 18] | Plant response rating, Foxtail, Giant [1, 19] | Windgrass plant response rating ([10]; 16 g ai/ha)
45: Windgrass plant response rating ([10]; 8 g ai/ha)
98: Plant response rating, Canarygrass ([8]; 31 g ai/ha, scale 0 to 100) | Plant response rating, Barley [11, 21] | Surinam Grass plant response rating ([12]; 16 g ai/ha, postemergence, 0-100 scale)
30: Plant response rating, Corn (corn (Zea mays); [18]) | Plant response rating, Corn (corn (Zea mays); [19])
50: Plant response rating, Wheat [2, 15] | Plant response rating, Corn (corn (Zea mays); [15])
70: Plant response rating, Wheat [2, 13] | Plant response rating, Barnyardgrass [6, 19] | Plant response rating, Crabgrass, Large [7, 19] | Plant response rating, Barley [11, 17]
100: Plant response rating, Foxtail, Giant [1, 13] | Plant response rating, Foxtail, Giant [1, 15] | Plant response rating, Corn (corn (Zea mays); [13]) | Plant response rating, Barnyardgrass [6, 13] | Plant response rating, Barnyardgrass [6, 15] | Plant response rating, Crabgrass, Large [7, 13] | Plant response rating, Crabgrass, Large [7, 15] | Plant response rating, Canarygrass [8, 21] | Plant response rating, Surinam Grass ([12]; Postemergence, 31 g ai/ha, scale 0 to 100) | Plant response rating, Surinam Grass ([12]; Postemergence, 62 g ai/ha, scale 0 to 100, 0 no effect, 100 complete control) | Plant response rating, Surinam Grass ([12]; Preemergence, 31 g ai/ha, scale 0 to 100 (0 no effect, 100 complete control)) | Plant response rating, Surinam Grass ([12]; Preemergence, 62 g ai/ha, 0 to 100 scale, 0 no effect, 100 complete control)
60: Surinam Grass plant response rating ([12]; Preemergence, 8 g ai/ha, scale 0 to 100 (0 no effect, 100 complete control))
90: Plant response rating, Barnyardgrass [6, 18] | Plant response rating, Crabgrass, Large [7, 18] | Surinam Grass plant response rating [12, 20]
10: Barley plant response rating [11, 20]
20: Plant response rating, Wheat [2, 19]
85: Plant response rating, Windgrass ([10]; 31 g ai/ha, scale 0 to 100) | Surinam Grass plant response rating ([12]; Preemergence, 16 g ai/ha, scale 0 to 100)
